From ChEMBL document CHEMBL4190357, “New Substituted Cyanoindoline Derivatives as MAP3K14 Kinase Inhibitors for the Treatment of Cancer and Autoimmune Disorders” (ACS Med Chem Lett, 2017) come the findings set out here.

Assay [1] relates to JJN-3. Put plainly: Antiproliferative activity against human JJN-3 cells after 96 hrs by CellTiter-Glo luminescence assay. The format is functional, cell-based. Conditions: JJN-3, 96 h.
The subject of assay [2] is KMS-12-BM. As to the kind of experiment: Antiproliferative activity against human KMS-12-BM cells after 96 hrs by CellTiter-Glo luminescence assay. The format is functional, cell-based.
In assay [3] the target is T1, Mitogen-activated protein kinase kinase kinase 14 (Homo sapiens, UniProt Q99558). Put plainly: Inhibition of MAP3K14 in human L363 assessed as decrease in IKKalpha phosphorylation level after 2 hrs by sandwich immuno assay.
The target of assay [4] is T1, Mitogen-activated protein kinase kinase kinase 14. Put plainly: Inhibition of recombinant human GST-tagged MAP3K14 autophosphorylation after 1 hr by Alpha screen assay.

T1 sequence (Q99558 whole entry): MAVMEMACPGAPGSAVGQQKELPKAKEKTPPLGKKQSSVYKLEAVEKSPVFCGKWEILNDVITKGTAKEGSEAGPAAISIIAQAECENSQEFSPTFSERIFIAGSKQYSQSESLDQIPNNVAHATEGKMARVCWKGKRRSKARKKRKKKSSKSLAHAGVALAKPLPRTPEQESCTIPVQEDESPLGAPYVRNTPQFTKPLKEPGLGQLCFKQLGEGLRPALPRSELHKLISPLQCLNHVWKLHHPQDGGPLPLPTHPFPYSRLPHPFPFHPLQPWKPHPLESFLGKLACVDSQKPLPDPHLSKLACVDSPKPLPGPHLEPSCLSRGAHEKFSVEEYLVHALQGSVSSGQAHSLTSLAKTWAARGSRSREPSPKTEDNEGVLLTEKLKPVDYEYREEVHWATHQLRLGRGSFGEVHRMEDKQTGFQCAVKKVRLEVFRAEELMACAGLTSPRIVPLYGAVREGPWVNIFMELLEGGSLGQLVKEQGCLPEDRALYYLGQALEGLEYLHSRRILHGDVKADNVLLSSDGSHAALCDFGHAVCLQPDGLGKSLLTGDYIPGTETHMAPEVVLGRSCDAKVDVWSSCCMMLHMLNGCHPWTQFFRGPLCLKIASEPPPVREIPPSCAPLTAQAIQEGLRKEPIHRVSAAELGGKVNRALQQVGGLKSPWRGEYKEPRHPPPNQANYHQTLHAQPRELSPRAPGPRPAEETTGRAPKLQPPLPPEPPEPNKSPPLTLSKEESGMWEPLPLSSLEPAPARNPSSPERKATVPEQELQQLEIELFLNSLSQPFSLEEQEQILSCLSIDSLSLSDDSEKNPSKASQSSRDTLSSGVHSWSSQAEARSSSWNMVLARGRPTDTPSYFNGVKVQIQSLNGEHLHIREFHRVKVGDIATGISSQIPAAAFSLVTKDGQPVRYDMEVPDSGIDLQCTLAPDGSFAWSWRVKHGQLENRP

Consider `CC(C)Oc1ccc(CO)cc1Nc1nccc(-c2cc(C#N)c3c(c2)[C@@](C)(CO)CN3)n1`, for which the figures for the IC50 in assay [1], in assay [2] and in assay [3] were 0.141 µM, more than 10 µM and 0.0066 µM, respectively.

As to `[2H]C([2H])(O)c1ccc(C)c(Nc2nccc(-c3cc(C#N)c4c(c3)[C@@](C)(CO)CN4)n2)c1`, the results for the IC50 in assay [1], in assay [2] and in assay [3] were 0.091 µM, more than 10 µM and 0.0022 µM, respectively.

In the case of `Cc1cc(F)c(CO)cc1Nc1nccc(-c2cc(C#N)c3c(c2)[C@@](C)(CO)CN3)n1`, the results for the IC50 in assay [1], in assay [2] and in assay [3] were 0.272 µM, more than 10 µM and 0.0078 µM, respectively.

Consider `CC(C)(O)COc1ccc(C#N)cc1Nc1nccc(-c2cc(C#N)c3c(c2)[C@@](C)(CO)CN3)n1`, for which the IC50 in assay [1] worked out at 0.138 µM; in assay [2], 4.9 µM; in assay [3] it was 0.0257 µM.

Take `Cc1ccc(C#N)cc1Nc1ncc(F)c(-c2cc(C#N)c3c(c2)[C@@](C)(CO)CN3)n1`: the figures for the IC50 in assay [1], in assay [2] and in assay [3] were 0.302 µM, more than 10 µM and 0.0012 µM, respectively.

For the compound `CN1CC(F)C(Oc2ccc(C#N)cc2Nc2nccc(-c3cc(C#N)c4c(c3)[C@@](C)(CO)CN4)n2)C1` (some centres not stated), the IC50 was 0.741 µM in assay [1], more than 10 µM in assay [2] and 0.0214 µM in assay [3].

In the case of `C[C@]1(CO)CNc2c(C#N)cc(-c3ccnc(Nc4cc(C#N)ccc4OC4CC4)n3)cc21`, the IC50 in assay [1] worked out at 0.067 µM; in assay [2], 1.23 µM; in assay [3], 0.0115 µM.

In the case of `CNC(=O)c1ccc(OC(C)C)c(Nc2nccc(-c3cc(C#N)c4c(c3)[C@@](C)(CO)CN4)n2)c1`, the IC50 in assay [1] was 0.288 µM; in assay [2], more than 10 µM; in assay [3] it was 0.0195 µM.

For `Cc1cc(F)c(C#N)cc1Nc1nccc(-c2cc(C#N)c3c(c2)[C@@](C)(CO)CN3)n1`, the IC50 is 0.617 µM in assay [1], more than 10 µM in assay [2] and 0.006 µM in assay [3].

As to `Cc1cc(CCN2CCOCC2)c(C#N)cc1Nc1nccc(-c2cc(C#N)c3c(c2)[C@@](C)(CO)CN3)n1`, the IC50 was 0.029 µM in assay [1], more than 10 µM in assay [2] and 0.0013 µM in assay [3].

On to `CNC(=O)c1ccc(C)c(Nc2nccc(-c3cc(C#N)c4c(c3)[C@@](C)(CO)CN4)n2)c1`, for which the half-inhibitory concentration (IC50) in assay [1] is 0.085 µM; in assay [2], 5.19 µM; in assay [3], 0.0022 µM; in assay [4], 0.0018 µM.

Take `C[C@]1(CO)CNc2c(C#N)cc(-c3ccnc(Nc4cc(C#N)ccc4CO)n3)cc21`: the IC50 was 0.24 µM in assay [1], more than 10 µM in assay [2] and 0.0063 µM in assay [3].
